Source: patent US7338454B2, “Breath test” (Children, Youth and Women's Health Service Incorporated, priority 2001, dated 2008)
Values joined by “and” are separate entries in the source; they are usually repeats but may differ in a detail not shown here. Identical values can stand only once. Marks after values point to notes of the source that are not given here. One block for each compound: values may come before it.

What was measured:
Dark Agouti rats [1] = test: Food intake, body weight, villus height and overall mucosal damage in MTX-treated rats with or without folinate; assay type: in vivo, rat
Description: (§1) Sixteen female SPF Dark Agouti rats were housed in individual metabolism cages and were given ad libitum access to a semi-synthetic casein based diet and fresh water. Food and water intakes and body weights were measured daily. They were given two injections of MTX (1.5 mg/kg i/m) at 0 and 24 hrs. Calcium folinate was added to the drinking water of eight rats (10 mg/m^2) 2 hours prior to, and during MTX injections. Eight rats were given MTX but no folinate treatment, and four control rats were given no treatments. Four rats from each treatment group were killed at 72 hours, and the other four at 120 hours, after initial chemotherapy. SBT were undertaken before chemotherapy, and at 52 and 100 hours after initial chemotherapy.
(§2) At the appropriate times, rats were anaesthetised with halothane, cardiac blood samples collected and the animals were killed by cervical dislocation. The small intestine was emptied, flushed with chilled saline and weighed. Samples were collected into formalin from each of the proximal jejunum for histological assessment, and from the jejunum into liquid nitrogen for sucrase and myeloperoxidase determinations.

Dark Agouti rats [2] = test: Sucrose breath test in MTX-treated rats with or without folinate; assay type: in vivo, rat
Description: as §1
Breath ^13CO2 levels are indicative of sucrase activity in the small intestine. SBTs were undertaken before and after chemotherapy. • Rats were fasted for 3 hrs and placed in the collection chambers for 15 minutes to acclimatise and baseline samples collected into exetainers. • Rats were gavaged with 1.0 ml of a sucrose solution containing 1 g/ml of naturally enriched ^13C-sucrose. • Breath samples were collected at 30, 60 and 90 minute time intervals after gavage and analysed for ^13CO2 by isotope ratio mass spectrometry (PDZ-Europa ABCA).

sucrase [3] = test: Jejunal sucrase activity in MTX-treated rats with or without folinate; assay type: in vivo, rat; conditions: MTX-treated rats with folinate vs non-folinate
Description: as §1, §2
Sucrase activity was measured using a modification of the glucose oxidase method for estimation of the […] glucose concentration (Dahlqvist, 1968).

sucrase [4] = molecular target: T1, sucrase (Homo sapiens, UniProt P14410); test: 13C-Sucrose Breath Test in healthy adults, with and without sucrase inhibitor; assay type: in vivo; conditions: two human subjects, respectively; 200 mg acarbose with 20 g sucrose vs 20 g sucrose alone
T1 construct: from tissue; host or cells: small-intestinal brush border of living human volunteers (in vivo breath test; no isolated protein)
T1 sequence (P14410 whole entry): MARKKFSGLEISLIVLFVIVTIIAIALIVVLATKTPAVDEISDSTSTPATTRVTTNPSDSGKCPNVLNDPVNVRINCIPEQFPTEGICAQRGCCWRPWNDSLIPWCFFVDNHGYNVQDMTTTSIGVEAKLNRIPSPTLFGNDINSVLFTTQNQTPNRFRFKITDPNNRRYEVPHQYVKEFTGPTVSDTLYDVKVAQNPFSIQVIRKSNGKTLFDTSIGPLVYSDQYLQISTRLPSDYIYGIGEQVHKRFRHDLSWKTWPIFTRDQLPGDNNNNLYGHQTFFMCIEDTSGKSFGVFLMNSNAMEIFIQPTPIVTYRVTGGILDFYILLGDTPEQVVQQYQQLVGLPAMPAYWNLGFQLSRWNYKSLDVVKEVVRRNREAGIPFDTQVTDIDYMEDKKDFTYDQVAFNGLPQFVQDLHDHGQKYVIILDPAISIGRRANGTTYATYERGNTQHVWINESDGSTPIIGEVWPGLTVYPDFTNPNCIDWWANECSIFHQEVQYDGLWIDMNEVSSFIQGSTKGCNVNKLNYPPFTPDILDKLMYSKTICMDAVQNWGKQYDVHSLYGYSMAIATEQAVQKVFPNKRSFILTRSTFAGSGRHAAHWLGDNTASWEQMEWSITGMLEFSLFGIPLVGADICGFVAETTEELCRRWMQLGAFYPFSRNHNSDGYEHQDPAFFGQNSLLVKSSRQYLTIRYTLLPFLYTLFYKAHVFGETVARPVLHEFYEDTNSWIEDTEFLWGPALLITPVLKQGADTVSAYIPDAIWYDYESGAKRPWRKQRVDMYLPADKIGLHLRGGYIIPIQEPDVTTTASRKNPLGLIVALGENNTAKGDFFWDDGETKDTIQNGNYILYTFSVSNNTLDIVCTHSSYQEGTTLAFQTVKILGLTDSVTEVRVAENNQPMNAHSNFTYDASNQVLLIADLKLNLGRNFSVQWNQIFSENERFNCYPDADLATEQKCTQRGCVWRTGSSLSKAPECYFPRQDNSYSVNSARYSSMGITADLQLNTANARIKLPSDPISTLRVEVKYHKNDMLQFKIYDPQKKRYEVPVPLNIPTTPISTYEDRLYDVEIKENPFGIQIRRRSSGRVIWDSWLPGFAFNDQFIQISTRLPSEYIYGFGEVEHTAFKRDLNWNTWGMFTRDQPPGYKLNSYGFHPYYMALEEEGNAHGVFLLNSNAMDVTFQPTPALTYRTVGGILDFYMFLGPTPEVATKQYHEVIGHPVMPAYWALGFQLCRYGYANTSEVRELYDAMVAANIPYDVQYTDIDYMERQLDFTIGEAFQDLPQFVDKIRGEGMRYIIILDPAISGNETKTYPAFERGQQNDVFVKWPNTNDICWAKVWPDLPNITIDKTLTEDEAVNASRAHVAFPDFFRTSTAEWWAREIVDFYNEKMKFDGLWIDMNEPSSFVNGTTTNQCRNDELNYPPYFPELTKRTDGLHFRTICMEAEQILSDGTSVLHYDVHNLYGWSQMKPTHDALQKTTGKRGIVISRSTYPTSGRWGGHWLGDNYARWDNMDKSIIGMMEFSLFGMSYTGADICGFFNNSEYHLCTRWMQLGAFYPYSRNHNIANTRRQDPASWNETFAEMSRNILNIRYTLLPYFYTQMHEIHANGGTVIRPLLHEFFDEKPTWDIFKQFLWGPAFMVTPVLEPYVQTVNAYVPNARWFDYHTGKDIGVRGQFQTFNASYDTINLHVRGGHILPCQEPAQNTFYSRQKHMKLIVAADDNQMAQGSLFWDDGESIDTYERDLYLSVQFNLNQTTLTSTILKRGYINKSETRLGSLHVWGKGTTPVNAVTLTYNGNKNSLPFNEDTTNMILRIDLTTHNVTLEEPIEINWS
Description: Breath samples were analysed for ^13CO2 by an isotope ratio mass spectrometer (IRMS; Europa Scientific, ABCA 20/20, Crewe, United Kingdom) equipped with a V410 data collection system. Isotope ratio mass spectrometric analysis of breath samples expresses results as a delta value, representing the ratio of ^13C/^12C in the sample in parts per thousand relative to the calcium carbonate international primary standard, Pee-Dee Belemnite limestone (South Carolina, USA)(Renes et al., (1997). Baseline levels of breath ^13CO2 were determined by averaging the delta of breath samples collected prior to the ingestion of sucrose. Results from the ^13C-Sucrose Breath Test were then calculated as the change in breath ^13CO2 levels from baseline (i.e. delta over baseline: DOB) for each time point of breath collection over the period of interval sampling. The area under the “change in breath ^13CO2 level over time” curve (AUC) was calculated using the trapezoidal rule: AUC=Σ[(DOBt1+DOBt2)/2]×(t2−t1)
The study recruited 10 healthy, non-smoking adults (male n=2; female n=8) aged 19-37 years old (mean age 22+2 years) with mean weight 65.2+3 kg. Subjects had no known history of gastrointestinal or liver disease. Antibiotic and non-steroidal antiinflammatory drug use in the three weeks preceding the experiment and acute alcohol consumption the day preceding the experiment warranted exclusion. […]

sucrase [5] = molecular target: T1, sucrase; test: Breath hydrogen analysis in healthy adults, with and without sucrase inhibitor; assay type: in vivo; conditions: 20 g sucrose with or without 200 mg acarbose, 180 min
Description: Subjects ingested 20 g, 40 g and 60 g sucrose (AnalaR, BDH, MERCK Pty Ltd, Victoria, Australia) dissolved in 100 ml water on separate occasions. The order of these breath tests was random for each subject. To determine whether the breath test was capable of detecting inhibition of sucrase activity, two volunteers ingested 2×100 mg sucrase inhibitor (Acarbose tablets, Glucobay™) crushed and dissolved in 30 ml water, immediately followed by 20 g sucrose dissolved in 70 ml water.
All subjects were required to fast for a minimum of eight hours prior to testing and for the three hour duration of the test period. Small amounts of water were permitted 30 minutes after ingestion of the test solution. Subjects provided two baseline breath samples immediately prior to ingestion of the test solution. Following ingestion of the test solution, breath samples were collected every 15 minutes for three hours. Physical activity was avoided during the three hour experimental period, particularly at breath collection time points. End-expiratory breath samples were provided by exhaling through a straw into 5×10 ml glass tubes (Exetainer, Labco Limited, High Wycombe, England). […]
Breath samples provided by human subjects were analysed for hydrogen content by gas chromatography (Quintron, Model DP Microlyzer, E.F. Brewer Company, Wisconsin). […]

sucrase [6] = test: Ileal sucrase activity in 5-FU treated rats; assay type: in vivo, rat; conditions: 5-FU 150 mg/kg i.p., normal level 54.9±0.9
Description: (§3) Ten female Dark Agouti rats were injected intraperitoneally with 150 mg/kg 5-FU; three rats there killed at 48, 72 and four at 96 hours after 5-FU treatment. Two control rats were not treated with 5-FU. Sucrose breath tests (SBT) were undertaken before chemotherapy and prior to sacrifice by measuring released ^13CO2 in the breath after gavages of ^13C-sucrose as an indicator of small intestine (SI) sucrase function. Tissue samples were collected from SI for sucrase enzyme determinations and histological assessment from the jejunum and ileum.

small intestine [7] = test: Histological severity scores of jejunum and ileum in 5-FU treated rats; assay type: in vivo, rat; conditions: 5-FU 150 mg/kg i.p.
Description: as §3

Dark Agouti rats [8] = test: Food intake of 5-FU treated rats; assay type: in vivo, rat; conditions: 5-FU 150 mg/kg i.p.
Description: as §3

myeloperoxidase = test: Jejunal myeloperoxidase (MPO) in MTX-treated rats; assay type: in vivo, rat; conditions: MTX treated rats not given folinate, 72 hours
Description: as §1, §2

sucrase [9] = test: In vitro assay of sucrase activity in duodenum, jejunum and ileum of methotrexate-treated rats; assay type: in vivo, rat; conditions: Day 7 after methotrexate treatment, vs control, p<0.0005
Description: Rats were sacrificed in the afternoon of day 7 by cervical dislocation under CO2 anaesthesia. The abdomen was opened via a midline incision and the liver and gut excised. The gut contents were flushed thoroughly with phosphate buffered saline, pH 6.0. The small intestine was placed on an ice-cold slab and divided into three sections: the duodenum comprising the intestine from the gastro-duodenal junction to the ligament of Treitz; the remaining intestine from the ligament of Treitz to the caecum was divided in half to provide jejunum and ileum of equal length. […]
the method of Dahlqvist (1968). […] Enzyme activity was then related to the protein concentration of the enzyme preparation as determined by the method of Bradford (1976), in which a standard curve of bovine serum albumin concentration is used to ascertain the protein content of the sample. As a result, the sucrase activity representative of duodenal, jejunal and ileal brush border membrane was determined as μ mol of substrate hydrolysed at 37° C. at pH 6.0/mg protein/hour.
Sucrase activity was expressed as specific activity relative to protein (μmol substrate hydrolysed at 37° C. at pH 6.0/mg protein/hour) and presented as mean±SEM. […] Significant difference in sucrase activity in the duodenum, jejunum and ileum of methotrexate-treated compared to control rats was detected using an unpaired t-test.

small intestine [10] = test: Histological severity score of small intestinal damage, methotrexate-treated rats; assay type: in vivo, rat; conditions: rats treated with methotrexate seven days earlier, n=4; median; maximum score 33
Description: Rats were sacrificed in the afternoon of day 7 by cervical dislocation under CO2 anaesthesia. The abdomen was opened via a midline incision and the liver and gut excised. The gut contents were flushed thoroughly with phosphate buffered saline, pH 6.0. The small intestine was placed on an ice-cold slab and divided into three sections: the duodenum comprising the intestine from the gastro-duodenal junction to the ligament of Treitz; the remaining intestine from the ligament of Treitz to the caecum was divided in half to provide jejunum and ileum of equal length. A 4 cm portion was excised from each intestinal section and was rapidly frozen in liquid nitrogen, before being transferred to a −70° C. freezer until determination of sucrase activity. A further 1 cm of each section was excised and fixed in methacarn fixative for two hours, transferred to 70% ethanol for 48 hours, and embedded in paraffin wax for histological analysis (Howarth et al., (1996).
Tissue samples in paraffin wax were sectioned transversely at 21 μm, stained with haematoxylin and eosin to expose the structure of the intestinal mucosa, and examined by an under a light microscope (Howarth et al., 1996). A semi-quantitative histological assessment of intestinal damage was utilised to obtain an overall score of damage severity in the three sections of the small intestine. A severity score ranging from 0-3 was allocated for 11 histological features (table 1), such that the maximum severity score (33) indicated the most severe damage (Howarth et al., 1996).
Histological severity scores were calculated and presented as median and range. The unpaired non-parametric Mann-Whitney two-sample test was employed to compare the severity scores of the methotrexate-treated rats with controls for each section of intestine.

SMILES: Nc1nc(=O)c2c([nH]1)NCC(CNc1ccc(C(=O)N[C@@H](CCC(=O)[O-])C(=O)[O-])cc1)N2C=O.[Ca+2] (stereo partly shown) [Calcium folinate]
- Damage to the small intestinal mucosa by sucrase activity, MPO levels, histological changes and sucrose breath testing (Dark Agouti rats [1]; MTX-treated rats): totally prevented damage
- Villus heights (structural damage) (Dark Agouti rats [1]; MTX-treated rats, folinate administered orally): structural damage was attenuated
- Disruption to the sucrase activity by SBT, folinate vs no folinate (Dark Agouti rats [2]; MTX-treated rats, p<0.0012 at 52 hours, p<0.0136 at 100 hours): significant decrease in disruption to the sucrase activity
- SBT result (breath 13CO2) 52 hrs after MTX treatment (Dark Agouti rats [2]; rats, MTX 1.5 mg/kg i/m at 0 and 24 hrs, calcium folinate 10 mg/m^2 in drinking water): attenuates mucosal damage
- Jejunal sucrase activity (sucrase [3]): prevented the reduction in jejunal sucrase activity

SMILES: C[C@H]1O[C@H](O[C@H]2[C@H](O)[C@@H](O)[C@@H](O[C@H]3[C@H](O)[C@@H](O)C(O)O[C@@H]3CO)O[C@@H]2CO)[C@H](O)[C@@H](O)[C@@H]1N[C@H]1C=C(CO)[C@@H](O)[C@H](O)[C@H]1O (stereo partly shown) [Acarbose]
- Breath 13CO2 AUC diminished in the presence of the inhibitor (sucrase [4]): 57% and 93%

SMILES: O=c1[nH]cc(F)c(=O)[nH]1 [5-FU, 5-fluorouracil]
- Ileal sucrase activity at 72 hours (sucrase [6]): 7.52±0.82 nmol glucose/min/cm
- Histological severity score, ileum, 72 hours (small intestine [7]): 12
- Histological severity score, ileum, 96 hours (small intestine [7]): 8
- Histological severity score, jejunum, 72 hours (small intestine [7]): 8
- Histological severity score, jejunum, 96 hours (small intestine [7]): 5
- Histological severity score, ileum, 48 hours (small intestine [7]; median): 17
- Histological severity score, jejunum, 48 hours (small intestine [7]; median): 13
- Food intake 72 hours after injection (Dark Agouti rats [8]): 4.7 ± 0.7 g
- Food intake 96 hours after injection (Dark Agouti rats [8]): 6.4 ± 0.8 g
- Food intake 24 hours after injection (Dark Agouti rats [8]; before treatment 11.1±0.3 g/rat/day): 5.3 ± 0.4 g

Further lines, with some results ahead:

- Breath Hydrogen, Subject 1, maximum change from baseline (sucrase [5]): 2 ppm
- Breath Hydrogen, Subject 2, maximum change from baseline (sucrase [5]): 2 ppm
SMILES: OC[C@H]1O[C@@](CO)(O[C@H]2O[C@H](CO)[C@@H](O)[C@H](O)[C@H]2O)[C@@H](O)[C@@H]1O [Sucrose, sucrose]

- Myeloperoxidase (inflammatory marker), jejunum (myeloperoxidase): significantly higher
SMILES: CN(Cc1cnc2nc(N)nc(N)c2n1)c1ccc(C(=O)N[C@@H](CCC(=O)O)C(=O)O)cc1 [methotrexate]
- Body weights (Dark Agouti rats [1]; rats, MTX without folinate, after chemotherapy): decreased
- Reduction in food intake (Dark Agouti rats [1]; rats, MTX without folinate, from t0 to 96 hours after treatment): 20%
- Sucrase activity in duodenum, jejunum and ileum (sucrase [9]): significantly diminished in all three sections of intestine
- Severity score, duodenum (small intestine [10]): 8 *
- Severity score, ileum (small intestine [10]): 6.5 *
- Severity score, jejunum (small intestine [10]): 10 *
